According to patent US6881421B1 (Bioalliance Pharma S.A., priority 1998, dated 2005):
≈ marks a conversion by molar mass, not a printed value.

Assays:
[1] = Titration of progesterone/steroid content of nanoparticles by HPLC; format: physicochemical; settings: for Drug load: average of 3 values; for Increase in content load (number of times): PIBCA/HP CD particles versus PIBCA without HP CD; for Content of combined PIBCA and HP CD particles / Content of PIBCA nanoparticles without HP CD: average of three preparations; for Content of PIBCA nanoparticles without HP CD: reference particles
Description: (§1) The different suspensions of nanoparticles were centrifuged at 82,000 g for 30 to 40 min at 25° C. (Beckman, L5-65 Ultracentrifuge, 70.1 Ti type rotor) and resuspended in 5 ml distilled water. The suspensions were finally freeze-dried (Christ HED Freeze Drier, Germany).
To titrate the progesterone content in the nanoparticles, the freeze-dried products were diluted in acetonitrile of HPLC grade and the solutions analyzed by high performance liquid chromatography (HPLC). The HPLC system consisted of a 510 solvent delivery unit (Waters-Saint-Quentin-en-Yvelines, France), a WISP 712 automatic sampler, a column Nova-Pak C18 4 μm column (250×4.6 mm), a 486 absorbency detector which operated at 245 NM and interfaced with a 746 data module. The flow rate was 1.0 ml/min and the mobile phase made up of water and acetonitrile (40:60) for which the retention time was approximately 12 min. The results were expressed as an average of three titrations.
The different steroids were determined as in Example 6 so that the titration of these different substances was conducted under the same analytical conditions.

[2] = In vitro release of HPβCD from PIBCA/HPβCD nanoparticles; format: physicochemical; settings: ABB medium, 37° C.; during the first hour
Description: Study of the release of HPBCD was conducted as for progesterone in ABB medium with quantification of the CD content after ultracentrifuging, by complexation with phenolphthalein as described above. The CD concentration at 100% release was approximately 100 μg/ml.

[3] = Titration of cyclodextrin content of nanoparticles (phenolphthalein spectrophotometry); format: physicochemical
Description: as §1
For quantification of HPβCD, the freeze-dried nanoparticles were hydrolyzed with 0.2 M NaOH for 12 hours, the pH adjusted to 7.0 (±0.5) and the HPBCD quantified by spectrophotometric titration of the discoloring of phenolphthalein solutions in the presence of HPβCD. Phenolphthalein formed stable, colorless inclusion complexes with cyclodextrins (CD). Consequently, the color intensity of a phenolphthalein solution in alkaline borate buffer decreased in proportion to the quantity of CD in solution.
Reference solutions were prepared by diluting mother solutions of CD in alkaline borate buffer solution with pH 10.0 containing 2% ethanol solution of 0.006 M phenolphthalein. The reference curves (λ=550 nm) are linear for CD concentrations ranging from 1 to 100 μg/ml. To the samples were added 4 parts buffer solution containing phenolphthalein and they were then tested directly.
The HPβCD was also titrated as in Example 6.

[4] = cited from earlier work
[5] = In vitro release of progesterone from PIBCA/HPβCD nanoparticles; format: physicochemical; settings: for progesterone released, second slower phase / progesterone released, initial rapid release: ABB pH 8.4, 37° C.; for progesterone released, initial rapid release: first hour; for progesterone released: ABB with 40% PEG 400
Description: A weighed quantity of freeze-dried nanoparticles (containing 1% (w/v) of glucose) was placed in a bottle containing 15 ml of alkaline borate buffer solution (ABB) (pH 8.4) or of ABB containing esterases (25 and 100 IU) or of ABB/poly(ethyleneglycol) 400 (PEG) at 20 and 40% (v/v). The samples were magnetically stirred at 200 r/min and 37° C., and taken at predetermined intervals. The suspensions were centrifuged at 82,000 g for 30 minutes at 20° C., then the progesterone content of the supernatant is determined for all media and the HPβCD content for the PEG media. The progesterone content is determined using HPLC as described above with injection of 100 μl for the samples incubated in ABB media and 20 μl for the PEG media.
All the tests are conducted under conditions such 15 that the active ingredient concentration during the release stage is maintained below 10% saturation.

[6] = Solubility of progesterone; format: physicochemical; settings: polymerization medium, aqueous with cosolvent or surfactant or cyclodextrin; diluted hydrochloric acid (pH 2.0), 1% (w/v) poloxamer 188; read-out: maximum solubility in the polymerization medium
[7] = PIBCA nanoparticles without HPβCD
[8] = PIBCA/HPBCD nanoparticles (10 mg/ml HPβCD)

Compound	Drug load [1, 7] [mg/g]	Increase in content load (number of times) [1]	Drug load [1, 8] [mg/g]	Content of combined PIBCA and HP CD particles [1] [mmol/g]	Content of PIBCA nanoparticles without HP CD [1] [mmol/g]	other results
C#C[C@]1(O)CC[C@H]2[C@@H]3CCC4=Cc5oncc5C[C@]4(C)[C@H]3CC[C@@]21C [Danazol, danazol]	0.34	32.9 number of times	11.2	33.19	1.01	–
CC(O)COC[C@H]1O[C@@H]2O[C@H]3[C@H](O)[C@@H](O)[C@@H](O[C@H]4[C@H](O)[C@@H](O)[C@@H](O[C@H]5[C@H](O)[C@@H](O)[C@@H](O[C@H]6[C@H](O)[C@@H](O)[C@@H](O[C@H]7[C@H](O)[C@@H](O)[C@@H](O[C@H]8[C@H](O)[C@@H](O)[C@@H](O[C@H]1[C@H](O)[C@H]2O)O[C@@H]8COCC(C)O)O[C@@H]7COCC(C)O)O[C@@H]6COCC(C)O)O[C@@H]5COCC(C)O)O[C@@H]4COCC(C)O)O[C@@H]3COCC(C)O (stereo partly drawn) [HPβCD, 2-hydroxypropyl-β-cyclodextrin]	–	–	–	–	–	cyclodextrin released [2]: ~100%; quantity of HPβCD associated with the particles ([3]; equal initial masses of HPβCD and isobutylcyanoacrylate in the polymerization medium): approximately 35%; quantity of HPβCD associated with the particles ([3]; maximum reached with increasing HPβCD (FIG. 3)): about 60 % of particle weight
C[C@]12CCC(=O)C=C1CC[C@@H]1[C@@H]2[C@@H](O)C[C@@]2(C)[C@H]1CC[C@]2(O)C(=O)CO [Hydrocortisone, hydrocortisone]	2.19	7.0 number of times	15.3	42.21	6.04	–
CC(=O)O[C@]1(C(C)=O)CC[C@H]2[C@@H]3C=C(C)C4=CC(=O)CC[C@]4(C)[C@H]3CC[C@@]21C [Megestrolacetate, megestrol acetate]	0.25	5.6 number of times	1.4	3.64	0.65	–
C[C@]12C=CC(=O)C=C1CC[C@@H]1[C@@H]2[C@@H](O)C[C@@]2(C)[C@H]1CC[C@]2(O)C(=O)CO [Prednisolone, prednisolone]	0.12	129.2 number of times	15.5	43.00	0.33	Increase in content load (number of times) ([1]; listed as prednisolone): 129 number of times
CC(=O)[C@H]1CC[C@H]2[C@@H]3CCC4=CC(=O)CC[C@]4(C)[C@H]3CC[C@]12C [Progesterone, progesterone]	0.79	27.7 number of times	24.0	69.60	2.51	water-solubility [4]: 10 µg/mL; progesterone content ([1]; larger particles (170 nm)): 10.5 µg/mg; progesterone content of particles ([1]; prepared in the presence of HPβCD, highest content (FIG. 5)): 45 μg/mg of particles; active ingredient content ([1]; smallest nanoparticles (70 nm)): 24 µg/mg; progesterone released, second slower phase ([5]; 70 nm nanoparticles): ~62%; progesterone released, initial rapid release ([5]; 70 nm nanoparticles): ~34%; progesterone released, second slower phase ([5]; 150 nm nanoparticles): approximately 35%; progesterone released, initial rapid release ([5]; 150 nm nanoparticles): approximately 10%; progesterone released ([5]; first-named formulation (150 nm)): approximately 75%; progesterone released ([5]; second-named formulation (70 nm)): ~82%; quantity of released progesterone ([5]; ABB with esterases (25 and 100 IU), both tested formulations): ~100%; solubility [6]: ~60 µg/mL (≈ 191 µM)
CC(=O)S[C@@H]1CC2=CC(=O)CC[C@]2(C)[C@H]2CC[C@@]3(C)[C@@H](CC[C@@]34CCC(=O)O4)[C@H]12 [Spironolactone, spironolactone]	7.65	6.9 number of times	53.0	127.23	18.36	–
C[C@]12CC[C@H]3[C@@H](CCC4=CC(=O)CC[C@@]43C)[C@@H]1CC[C@@H]2O [Testosterone, testosterone]	2.27	8.6 number of times	19.5	67.6	7.87	–
